Test results taken from ChEMBL document CHEMBL1201862, “PubChem BioAssay data set” (2004).
Calls of active or inactive are those of the source.

Columns and labels:
[1] = molecular target: T1, High affinity choline transporter 1 (Homo sapiens, UniProt Q9GZV3); assay: CHT inhibitors, dose response, cell-based, 10-point CRC, membrane potential dye (AID 588401); format: functional;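 also: membrane potential dye fluorescence of choline-evoked depolarization via CHT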
T1 sequence (Q9GZV3 whole entry): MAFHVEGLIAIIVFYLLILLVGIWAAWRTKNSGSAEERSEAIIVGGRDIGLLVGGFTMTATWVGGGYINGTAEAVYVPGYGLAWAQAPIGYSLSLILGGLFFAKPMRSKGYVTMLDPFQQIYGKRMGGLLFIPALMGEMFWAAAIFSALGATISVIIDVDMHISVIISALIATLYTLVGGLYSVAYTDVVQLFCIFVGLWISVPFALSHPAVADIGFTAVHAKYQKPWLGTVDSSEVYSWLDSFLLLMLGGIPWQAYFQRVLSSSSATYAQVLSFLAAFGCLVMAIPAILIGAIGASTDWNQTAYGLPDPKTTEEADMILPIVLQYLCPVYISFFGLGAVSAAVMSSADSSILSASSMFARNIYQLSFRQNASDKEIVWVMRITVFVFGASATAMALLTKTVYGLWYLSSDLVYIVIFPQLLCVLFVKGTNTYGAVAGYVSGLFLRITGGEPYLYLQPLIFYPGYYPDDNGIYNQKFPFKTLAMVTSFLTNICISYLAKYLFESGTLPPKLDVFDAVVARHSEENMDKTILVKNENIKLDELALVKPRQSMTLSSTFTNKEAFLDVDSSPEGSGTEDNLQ

[2] = molecular target: T1, High affinity choline transporter 1; assay: CHT inhibitors, dose response, cell-based, 5-point CRC, membrane potential dye (AID 504840); format: functional
[3] = nonselective inhibitors of cellular cAMP signaling, dose response, counter-screen for MC4R biased antagonist project, cell-based, TR-FRET cAMP detection (AID 602305); format: functional;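 also: U2OS cells stimulated with forskolin near its EC80 as the cAMP inducer; potency is for inhibition of forskolin-stimulated cAMP signaling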
Melanocortin receptor 4 = Melanocortin receptor 4 (Homo sapiens, UniProt P32245); assay: MC4R antagonist potency on cAMP, dose response, cell-based, TR-FRET, biased antagonists (AID 602298); format: functional;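 also: antagonist potency against agonist-stimulated cAMP production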
Chain of Melanocortin receptor 4 (P32245 whole entry): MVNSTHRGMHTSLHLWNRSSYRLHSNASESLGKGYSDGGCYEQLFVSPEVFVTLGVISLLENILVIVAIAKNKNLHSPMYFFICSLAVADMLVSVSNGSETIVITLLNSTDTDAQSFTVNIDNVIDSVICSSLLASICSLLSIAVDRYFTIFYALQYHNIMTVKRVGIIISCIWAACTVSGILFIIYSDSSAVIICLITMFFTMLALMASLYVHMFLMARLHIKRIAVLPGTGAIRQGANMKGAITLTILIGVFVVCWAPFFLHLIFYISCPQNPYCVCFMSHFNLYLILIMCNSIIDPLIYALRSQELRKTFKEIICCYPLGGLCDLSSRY

HEK293 = assay: cells; format: functional, cell-based; details: Homo sapiens
[4] = HEp-2 cell cytotoxicity, dose response, cytotoxicity control for RSV inhibitor project, HTS (AID 2410); format: functional; details: human respiratory syncytial virus
[5] = molecular target: T2, Nuclear receptor subfamily 0 group B member 1 (Homo sapiens, UniProt P51843); assay: Luminescence-based cell-based high throughput dose response assay for inhibitors of the orphan nuclear receptor subfamily 0, group B, member 1 (DAX1; NR0B1). [Related pubchem assays (depositor defined):AID504766, AID504790]; format: functional
T2 sequence (P51843 whole entry): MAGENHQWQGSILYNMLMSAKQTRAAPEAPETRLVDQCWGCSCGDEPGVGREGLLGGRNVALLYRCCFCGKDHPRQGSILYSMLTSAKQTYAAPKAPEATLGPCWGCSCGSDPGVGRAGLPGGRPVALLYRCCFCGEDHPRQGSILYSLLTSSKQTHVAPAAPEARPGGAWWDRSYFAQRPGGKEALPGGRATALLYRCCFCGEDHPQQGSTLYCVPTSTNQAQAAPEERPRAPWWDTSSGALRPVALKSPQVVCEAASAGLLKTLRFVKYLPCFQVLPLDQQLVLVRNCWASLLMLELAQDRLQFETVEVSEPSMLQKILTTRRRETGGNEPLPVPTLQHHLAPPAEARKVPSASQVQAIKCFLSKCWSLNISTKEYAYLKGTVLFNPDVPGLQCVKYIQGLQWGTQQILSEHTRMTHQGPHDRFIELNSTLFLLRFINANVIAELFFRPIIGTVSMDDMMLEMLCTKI

[6] = A Cell Based Secondary Assay To Explore Cytotoxicity of Compounds that Sensitize Mycobacterium Tuberculosis to Beta-Lactam Antibiotics.; format: functional
Caspase-3 = molecular target: T3, Caspase-3 (Homo sapiens, UniProt P42574); assay: SAR Analysis of small molecule inhibitors of Sentrin-specific proteases (SENPs) using a Caspase-3 Selectivity assay. [Related pubchem assays (depositor defined):AID2540, AID2599, AID434973, AID489001]; format: functional
T3 sequence (P42574 whole entry): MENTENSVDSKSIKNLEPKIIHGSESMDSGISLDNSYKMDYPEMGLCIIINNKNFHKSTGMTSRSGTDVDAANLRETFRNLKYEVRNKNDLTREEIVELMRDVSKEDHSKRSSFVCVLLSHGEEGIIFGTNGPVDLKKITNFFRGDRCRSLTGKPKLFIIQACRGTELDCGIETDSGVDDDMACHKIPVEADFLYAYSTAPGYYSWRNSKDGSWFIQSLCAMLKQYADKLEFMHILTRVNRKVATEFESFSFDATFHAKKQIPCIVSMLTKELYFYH

[7] = molecular target: T4, Sentrin-specific protease 7 (Homo sapiens, UniProt Q9BQF6); assay: SENP7 protease inhibitors, SAR follow-up, biochemical, luminescence (AID 504497); format: functional
T4 sequence (Q9BQF6 whole entry): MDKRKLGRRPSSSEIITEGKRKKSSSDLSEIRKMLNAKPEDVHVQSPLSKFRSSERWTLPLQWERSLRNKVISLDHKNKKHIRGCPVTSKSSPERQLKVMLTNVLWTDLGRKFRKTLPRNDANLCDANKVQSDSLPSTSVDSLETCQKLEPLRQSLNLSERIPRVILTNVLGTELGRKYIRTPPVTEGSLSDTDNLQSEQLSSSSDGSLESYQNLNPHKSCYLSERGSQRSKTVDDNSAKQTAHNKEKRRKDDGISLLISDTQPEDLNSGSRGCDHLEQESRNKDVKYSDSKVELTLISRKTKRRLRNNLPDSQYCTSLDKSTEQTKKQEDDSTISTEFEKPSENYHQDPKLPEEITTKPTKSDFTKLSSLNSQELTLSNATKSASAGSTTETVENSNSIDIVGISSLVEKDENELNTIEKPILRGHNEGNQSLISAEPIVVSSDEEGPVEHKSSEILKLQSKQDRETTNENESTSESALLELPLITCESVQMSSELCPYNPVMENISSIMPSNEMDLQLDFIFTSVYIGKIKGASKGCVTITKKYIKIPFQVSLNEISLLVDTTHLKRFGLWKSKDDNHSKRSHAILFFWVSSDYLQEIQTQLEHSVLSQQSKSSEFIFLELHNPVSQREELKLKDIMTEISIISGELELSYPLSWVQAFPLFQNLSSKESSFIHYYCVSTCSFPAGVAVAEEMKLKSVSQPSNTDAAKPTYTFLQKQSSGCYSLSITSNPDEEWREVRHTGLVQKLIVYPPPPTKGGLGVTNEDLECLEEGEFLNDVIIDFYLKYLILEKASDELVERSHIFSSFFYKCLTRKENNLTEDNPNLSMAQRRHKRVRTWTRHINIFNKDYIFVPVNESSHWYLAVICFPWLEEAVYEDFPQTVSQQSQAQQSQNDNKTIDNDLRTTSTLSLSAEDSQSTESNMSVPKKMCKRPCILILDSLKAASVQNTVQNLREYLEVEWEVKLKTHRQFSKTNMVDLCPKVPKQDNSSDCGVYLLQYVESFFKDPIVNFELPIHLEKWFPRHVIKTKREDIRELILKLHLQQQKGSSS

[8] = molecular target: T5, Sentrin-specific protease 8 (Homo sapiens, UniProt Q96LD8); assay: SENP8 protease inhibitors, SAR follow-up, biochemical, luminescence (AID 504501); format: functional
T5 sequence (Q96LD8 whole entry): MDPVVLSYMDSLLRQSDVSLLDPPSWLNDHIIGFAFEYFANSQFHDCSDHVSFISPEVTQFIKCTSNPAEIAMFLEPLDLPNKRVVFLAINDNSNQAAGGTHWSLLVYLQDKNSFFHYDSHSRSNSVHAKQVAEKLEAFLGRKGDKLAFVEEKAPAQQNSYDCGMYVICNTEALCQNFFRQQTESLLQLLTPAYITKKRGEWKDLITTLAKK

[9] = molecular target: T6, Sentrin-specific protease 6 (Homo sapiens, UniProt Q9GZR1); assay: SAR Analysis of small molecule inhibitors of Sentrin-specific protease 6 (SENP6) using a Luminescent assay. [Related pubchem assays (depositor defined):AID2582, AID2599]; format: functional
T6 sequence (Q9GZR1 whole entry): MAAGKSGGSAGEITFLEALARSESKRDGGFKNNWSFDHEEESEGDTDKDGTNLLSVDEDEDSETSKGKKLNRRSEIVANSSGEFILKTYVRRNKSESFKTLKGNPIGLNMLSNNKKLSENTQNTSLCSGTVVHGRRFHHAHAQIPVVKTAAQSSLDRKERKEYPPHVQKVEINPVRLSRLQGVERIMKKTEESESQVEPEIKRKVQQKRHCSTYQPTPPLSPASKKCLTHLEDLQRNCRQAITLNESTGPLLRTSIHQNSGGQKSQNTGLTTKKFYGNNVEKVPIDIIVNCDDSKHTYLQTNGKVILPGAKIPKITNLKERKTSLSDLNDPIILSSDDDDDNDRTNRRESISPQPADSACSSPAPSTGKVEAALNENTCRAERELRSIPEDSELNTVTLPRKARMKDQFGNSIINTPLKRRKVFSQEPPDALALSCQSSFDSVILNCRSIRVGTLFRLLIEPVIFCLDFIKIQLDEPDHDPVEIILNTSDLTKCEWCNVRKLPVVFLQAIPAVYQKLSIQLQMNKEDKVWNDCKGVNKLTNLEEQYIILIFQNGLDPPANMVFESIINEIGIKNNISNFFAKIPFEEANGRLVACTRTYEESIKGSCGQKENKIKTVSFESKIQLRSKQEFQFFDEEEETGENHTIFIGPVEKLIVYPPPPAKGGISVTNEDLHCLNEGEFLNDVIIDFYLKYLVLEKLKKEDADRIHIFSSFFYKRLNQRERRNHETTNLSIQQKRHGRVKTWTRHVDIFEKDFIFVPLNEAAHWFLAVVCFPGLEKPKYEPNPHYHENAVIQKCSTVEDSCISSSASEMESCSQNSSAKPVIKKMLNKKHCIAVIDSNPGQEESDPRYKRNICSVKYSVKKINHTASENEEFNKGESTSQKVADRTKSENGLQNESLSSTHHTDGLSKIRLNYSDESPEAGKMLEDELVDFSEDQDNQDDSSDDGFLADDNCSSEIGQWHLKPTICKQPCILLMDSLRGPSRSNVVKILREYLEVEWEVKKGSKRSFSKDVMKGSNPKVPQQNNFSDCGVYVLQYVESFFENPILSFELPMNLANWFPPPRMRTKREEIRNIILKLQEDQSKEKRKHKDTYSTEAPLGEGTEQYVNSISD

[10] = molecular target: T7, Microphthalmia-associated transcription factor (Homo sapiens, UniProt O75030); assay: TRPM1 promoter luciferase signal decrease, dose response, MITF inhibitor project, cell-based, SK-MEL-5, cherry-picked, set 3 (AID 493073); format: functional
T7 sequence (O75030 whole entry): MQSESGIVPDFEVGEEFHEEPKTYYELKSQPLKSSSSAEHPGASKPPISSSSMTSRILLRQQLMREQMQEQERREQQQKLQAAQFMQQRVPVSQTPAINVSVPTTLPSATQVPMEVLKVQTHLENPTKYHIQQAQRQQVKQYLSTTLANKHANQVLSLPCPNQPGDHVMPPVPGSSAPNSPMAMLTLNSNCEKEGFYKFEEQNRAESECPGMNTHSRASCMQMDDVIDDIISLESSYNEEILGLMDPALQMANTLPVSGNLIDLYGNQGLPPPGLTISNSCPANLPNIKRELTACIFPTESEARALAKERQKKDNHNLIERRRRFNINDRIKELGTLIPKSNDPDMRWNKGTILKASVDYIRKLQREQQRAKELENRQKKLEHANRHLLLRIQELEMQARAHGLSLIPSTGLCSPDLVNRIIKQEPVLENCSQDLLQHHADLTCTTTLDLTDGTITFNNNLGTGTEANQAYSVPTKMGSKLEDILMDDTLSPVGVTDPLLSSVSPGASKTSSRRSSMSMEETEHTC

C#CCNc1c(C)c(C)nc2ncnn12
IC50 [1]: 4.47 µM (active)
IC50 [2]: 9.35 µM (active)

CC1CCCN(c2nc(-c3cccnc3)nc3scc(-c4ccccc4)c23)C1 (stereo not drawn)
IC50 [3]: > 64.6 µM (inactive)
IC50 (Melanocortin receptor 4): > 64.6 µM (inactive)

O=[N+]([O-])c1cc(NS(=O)(=O)c2ccc(Cl)nc2)ccc1Cl
IC50 [1]: 3.35 µM (active)
IC50 [2]: 2.4 µM (active)

COc1ccc(-c2nc3ncccn3c2Br)cc1
IC50 (HEK293): > 67.6 µM (inactive)
CC50 [4]: 39.3 µM (active)
IC50 [5]: > 67.6 µM (inactive)

NC(=O)CSc1nnc(-c2ccc(O)cc2)n1Cc1ccco1
IC50 (HEK293): > 67.6 µM (inactive)
IC50 [5]: > 67.6 µM (inactive)

Cc1ccc2nc(-c3ccc(NC(=S)NC(=O)C(C)C)cc3)sc2c1
CC50 [6]: > 40 µM (active)
IC50 [3]: > 64.6 µM (inactive)
IC50 (Melanocortin receptor 4): > 64.6 µM (inactive)

Cc1cc(Cl)ccc1NC(=O)c1ccc2c(c1)OCO2
IC50 (Caspase-3): 28.1 µM (active)
IC50 [7]: 34.6 µM (active)
IC50 [8]: > 99 µM (inactive)
IC50 [9]: > 99 µM (inactive)

Cc1cc(C(=O)CCl)c(C)n1CCc1ccc(F)cc1
AC50 [10]: 4.25 µM (active)
IC50 [3]: > 64.5 µM (inactive)
IC50 (Melanocortin receptor 4): > 64.5 µM (inactive)

Brc1ccc(-c2csc(N3CCOCC3)n2)cc1
IC50 (HEK293): > 67.5 µM (inactive)
IC50 [5]: > 67.5 µM (inactive)

CCCn1c2ccccc2c2cnn(CC(=O)NCCN(CC)CC)c(=O)c21
IC50 [1]: 3.36 µM (active)
IC50 [2]: 5.7 µM (active)

COC(=O)c1ccc(C2c3[nH]c4ccccc4c3C[C@H]3C(=O)N(C4CCN(Cc5ccccc5)CC4)CC(=O)N23)cc1 (stereo partly drawn)
IC50 [3]: > 64.6 µM (inactive)
IC50 (Melanocortin receptor 4): > 64.6 µM (inactive)

Oc1nnc(/C=C/c2ccc(F)cc2)o1
IC50 (Caspase-3): > 99 µM (inactive)
IC50 [7]: > 99 µM (inactive)
IC50 [8]: > 99 µM (inactive)
IC50 [9]: > 99 µM (inactive)

O=C(c1ccccc1)c1cnc(-c2ccccc2)s1
IC50 (HEK293): > 67.6 µM (inactive)
IC50 [5]: > 67.6 µM (inactive)
